Each structure is given as a SMILES string. Read-outs that look alike come from different tables or passages of the source.

What all share (type): in vivo
For series [1], the system named is Yellow Fever Mosquito (Aedes aegypti, AEDSAE). The following applies: for YFM rating: Table ABC / ABC-DP rating. An outline of the steps:
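Compounds from DMSO master plates (4000 ppm stock) diluted in 90:10 water/acetone, then dispensed into six replicate plates and infested with ~1-day-old Aedes aegypti larvae in liver-powder water. Held covered at room temperature for 3 days; each well scored for larval mortality and graded on a rating scale.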

Series [2] deals with Beet Armyworm (Spodoptera exigua, LAPHEG). Put plainly: Bioassays on Beet Armyworm (BAW), 128-well diet tray assay. Conditions: Spodoptera exigua. An outline of the steps: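 Mortality of second-instar larvae (1–5/well) on artificial diet treated with 50 μg/cm^2 compound, read after 5–7 days at 25° C.; values are means of eight wells.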
The test system of series [3] is Cabbage Looper (Trichoplusia ni, TRIPNI). Put plainly: Bioassays on Cabbage Looper (CL), 128-well diet tray assay. The following applies: Trichoplusia ni. An outline of the steps: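 Activity is mean percent mortality over eight wells of second-instar larvae exposed to diet treated at 50 μg/cm^2 for 5–7 days at 25° C.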
[4] abbreviates: Beet Armyworm, Table ABC / ABC-DP rating, read-out: BAW rating.
[5] abbreviates: Cabbage Looper, Table ABC / ABC-DP rating, read-out: CL rating.
The mark [6] stands for this setting: Table ABC: Biological Results, species YFM.
[7] abbreviates: Table ABC: Biological Results, species BAW, read-out: BAW.
[8] abbreviates: Table ABC: Biological Results, species CL, read-out: CL.
Where [9] appears, read: Yellow Fever Mosquito, rating class.
[10] abbreviates: Beet Armyworm, rating class, read-out: BAW.
The mark [11] stands for this setting: Cabbage Looper, rating class, read-out: CL.

Take `O=C(NN=Cc1ccc(F)cc1F)c1cc(NC(=O)[C@H]2[C@H](c3cc(Cl)cc(Cl)c3)C2(Cl)Cl)ccc1Cl` (relative stereo) [F3004, trans-2,2-Dichloro-N-(4-chloro-3-(2-(2,4-difluorobenzylidene)hydrazine-1-carbonyl)phenyl)-3-(3,5-dichlorophenyl)cyclopropane-1-carboxamide]: in series [1] (Yellow Fever Mosquito), the YFM rating result was “A (80–100)”. For the same compound, the “YFM % Control (or Mortality) rating” value in series [1] (about 1 day-old larvae, 4000 ppm master solution diluted with 90:10 water/acetone, 15 μL per well plus 220 μL larval mixture, 3 days, mortality) is reported as “A (80–100)”. The mortality (commonly the percentage killed) at 50 µg/cm2 was in the range of 50 to 100% in series [2] (168 h, second instar larvae, 50 μg/cm^2 of test molecule on artificial diet, 25° C., five to seven days, average of eight wells, read-out: BAW % Control (or Mortality) rating) and 50 to 100% in series [3] (168 h, second instar larvae, 50 μg/cm^2 of test molecule on artificial diet, 25° C., five to seven days, average of eight wells, read-out: CL % Control (or Mortality) rating). Moreover, the pest or weed control at 50 µg/cm2 in series [2] (setting [4]) and in series [3] (setting [5]) was 50 to 100% each time.
`Cc1cc(NCc2ccc(Cl)cc2)ccc1NC(=O)c1cc(NC(=O)[C@H]2[C@H](c3cc(Cl)cc(Cl)c3)C2(Cl)Cl)ccc1Cl` (relative stereo) [F1010, trans-2-chloro-N-(4-((4-chlorobenzyl)amino)-2-methylphenyl)-5-(2,2-dichloro-3-(3,5-dichlorophenyl)cyclopropane-1-carboxamido)benzamide]: the YFM result in series [1] (setting [6]) is “A (80–100)”. The pest or weed control at 50 µg/cm2 in series [2] (setting [7]) and in series [3] (setting [8]) was 50 to 100% each time.
Consider `CCC(=O)Nc1c(F)ccc(NC(=O)c2cc(NC(=O)[C@H]3[C@H](c4cccc(C(F)(F)F)c4)C3(Cl)Cl)ccc2Cl)c1F` [F1679, 2-Chloro-5-((1R,3R)-2,2-dichloro-3-(3-(trifluoromethyl)phenyl)cyclopropane-1-carboxamido)-N-(2,4-difluoro-3-propionamidophenyl)benzamide], for which, in series [1] (setting [9]), the YFM entry is recorded as “A (80–100)”. The pest or weed control at 50 µg/cm2 in series [2] (setting [10]) and in series [3] (setting [11]) was 50 to 100% throughout.
For the compound `O=C(NCC(F)(F)C(F)(F)F)c1c(F)ccc(NC(=O)[C@H]2[C@H](c3ccc(F)c(Cl)c3)C2(Cl)Cl)c1F` (relative stereo) [F2018, trans-3-(2,2-Dichloro-3-(3-chloro-4-fluorophenyl)cyclopropane-1-carboxamido)-2,6-difluoro-N-(2,2,3,3,3-pentafluoropropyl)benzamide], in series [1] (Yellow Fever Mosquito), the YFM rating entry is “A (80–100)”. The pest or weed control at 50 µg/cm2 in series [2] (setting [4]) and in series [3] (setting [5]) was 50 to 100% each time.
As to `Nc1c(F)ccc(NC(=O)c2cc(NC(=O)[C@H]3[C@H](c4cccc(I)c4)C3(Cl)Cl)ccc2Cl)c1F` (relative stereo) [F1141, trans-N-(3-Amino-2,4-difluorophenyl)-2-chloro-5-(2,2-dichloro-3-(3-iodophenyl)cyclopropane-1-carboxamido)benzamide], the YFM entry in series [1] (setting [6]) is “A (80–100)”. In addition, the pest or weed control at 50 µg/cm2 in series [2] (setting [7]) and in series [3] (setting [8]) was 50 to 100% throughout.
For the compound `O=C(Nc1ccc(F)c(NC(=O)[C@H]2CCCO2)c1F)c1cc(NC(=O)[C@H]2[C@H](c3ccc(F)c(C(F)(F)F)c3)C2(Cl)Cl)ccc1Cl` [F1691, (R)—N-(3-(2-Chloro-5-((1R,3R)-2,2-dichloro-3-(4-fluoro-3-(trifluoromethyl)phenyl)cyclopropane-1-carboxamido)benzamido)-2,6-difluorophenyl)tetrahydrofuran-2-carboxamide], in series [1] (setting [9]), the YFM result was “B (More than 0 – Less than 80)”. Also, the pest or weed control at 50 µg/cm2 in series [2] (setting [10]) and in series [3] (setting [11]) was 50 to 100% throughout.
Regarding `O=C(Nc1ccc(F)c(NC(=O)C(F)(F)F)c1)c1cc(NC(=O)[C@H]2[C@H](c3ccc(F)c(Cl)c3)C2(Cl)Cl)ccc1Cl` [F1814, 2-Chloro-5-((1R,3R)-2,2-dichloro-3-(3-chloro-4-fluorophenyl)cyclopropane-1-carboxamido)-N-(4-fluoro-3-(2,2,2-trifluoroacetamido)phenyl)benzamide], the YFM rating entry in series [1] (Yellow Fever Mosquito) is listed as “A (80–100)”. For the same compound, the pest or weed control at 50 µg/cm2 in series [2] (setting [4]) and in series [3] (setting [5]) was 50 to 100% each time.
Take `Cc1cc(Br)ccc1NC(=O)c1cc(NC(=O)[C@H]2[C@H](c3cc(Cl)cc(Cl)c3)C2(Cl)Cl)ccc1Cl` (relative stereo) [F1054, trans-N-(4-Bromo-2-methylphenyl)-2-chloro-5-(2,2-dichloro-3-(3,5-dichlorophenyl)cyclopropane-1-carboxamido)benzamide]: the YFM entry in series [1] (setting [6]) is given as “A (80–100)”. Besides, the pest or weed control at 50 µg/cm2 in series [2] (setting [7]) and in series [3] (setting [8]) was 50 to 100% throughout.
Turning to `O=C(Nc1ccc(F)c(NC(=O)C(F)F)c1F)c1cccc(NC(=O)[C@H]2[C@H](c3ccc(Cl)c(Cl)c3)C2(Cl)Cl)c1` [F1447, 3-((1R,3R)-2,2-Dichloro-3-(3,4-dichlorophenyl)cyclopropane-1-carboxamido)-N-(3-(2,2-difluoroacetamido)-2,4-difluorophenyl)benzamide], in series [1] (setting [9]), the YFM result is “A (80–100)”. Further, the pest or weed control at 50 µg/cm2 in series [2] (setting [10]) and in series [3] (setting [11]) was 50 to 100% throughout.
Regarding `CC1(C)C(=O)CC1C(=O)Nc1c(F)ccc(NC(=O)c2cc(NC(=O)[C@H]3[C@H](c4ccc(F)c(C(F)(F)F)c4)C3(Cl)Cl)ccc2Cl)c1F` (stereo partly drawn) [F1507, 2-Chloro-5-((1R,3R)-2,2-dichloro-3-(4-fluoro-3-(trifluoromethyl)phenyl)cyclopropane-1-carboxamido)-N-(3-(2,2-dimethyl-3-oxocyclobutane-1-carboxamido)-2,4-difluorophenyl)benzamide], the YFM entry in series [1] (setting [9]) is reported as “A (80–100)”. In addition, the pest or weed control at 50 µg/cm2 in series [2] (setting [10]) and in series [3] (setting [11]) was 50 to 100% throughout.
`O=C(NCC(F)(F)F)c1cc(NC(=O)[C@H]2[C@@H](c3cc(F)c(F)c(Br)c3)C2(Cl)Cl)ccc1Cl` (relative stereo) [F2004, cis-5-(3-(3-Bromo-4,5-difluorophenyl)-2,2-dichlorocyclopropane-1-carboxamido)-2-chloro-N-(2,2,2-trifluoroethyl)benzamide]: in series [1] (Yellow Fever Mosquito), the YFM rating result is recorded as “A (80–100)”. The pest or weed control at 50 µg/cm2 in series [2] (setting [4]) and in series [3] (setting [5]) was 50 to 100% in each case.
With `O=C(NNCc1ccccc1)c1cc(NC(=O)[C@H]2[C@H](c3cc(Cl)cc(Cl)c3)C2(Cl)Cl)ccc1Cl` (relative stereo) [F2545, trans-N-(3-(2-Benzylhydrazine-1-carbonyl)-4-chlorophenyl)-2,2-dichloro-3-(3,5-dichlorophenyl)cyclopropane-1-carboxamide], in series [1] (Yellow Fever Mosquito), the YFM rating result is on record as “A (80–100)”. Besides, the pest or weed control at 50 µg/cm2 in series [2] (setting [4]) and in series [3] (setting [5]) was 50 to 100% in each case.
`O=C(Nc1ccc(F)cc1)c1cc(NC(=O)[C@H]2[C@H](c3ccc(F)c(Cl)c3)C2(Cl)Cl)cc(F)c1Cl` (relative stereo) [F1152, trans-2-Chloro-5-(2,2-dichloro-3-(3-chloro-4-fluorophenyl)cyclopropane-1-carboxamido)-3-fluoro-N-(4-fluorophenyl)benzamide]: the YFM entry in series [1] (setting [6]) was “A (80–100)”. Also, the pest or weed control at 50 µg/cm2 in series [2] (setting [7]) and in series [3] (setting [8]) was 50 to 100% throughout.
In the case of `O=C(CC1CC1)Nc1c(F)ccc(NC(=O)c2cc(NC(=O)[C@H]3[C@H](c4ccc(Cl)c(Cl)c4)C3(Cl)Cl)ccc2Cl)c1F` [F1417, 2-Chloro-N-(3-(2-cyclopropylacetamido)-2,4-difluorophenyl)-5-((1R,3R)-2,2-dichloro-3-(3,4-dichlorophenyl)cyclopropane-1-carboxamido)benzamide], in series [1] (setting [9]), the YFM result is reported as “A (80–100)”. Also, the pest or weed control at 50 µg/cm2 in series [2] (setting [10]) and in series [3] (setting [11]) was 50 to 100% throughout.

The values are drawn from US20250228239A1, “MOLECULES HAVING PESTICIDAL UTILITY, AND INTERMEDIATES, COMPOSITIONS, AND PROCESSES, RELATED THERETO” (priority 2024, published 2025).
